Data published in patent publication US20230103554A1, “TNFa SIGNALING [sequence] TUMOR-PROMOTING INFLAMMATION THAT CAN BE TARGETED TO THERAPY” (Baylor College of Medicine, priority 2020, published 2023).

Key:
[1] = tested on: NF-κB signaling in monocytes; assay: Intracellular IκBα in monocyte population of co-culture (PhosFlow flow cytometry); assay type: cell-based, human; conditions: 10 μg/mL etanercept
Experimental: Monocytes were directly cultured with wild-type or TNF, TNFR1, TNFR2 KO NB cell lines in ULA plates for 24 hours. Activation of NF-kB in monocytes and NB was measured by flow cytometry and cytokine production measured by ELISA from co-culture supernatant. To evaluate the contact-dependence of monocyte activation by NB, monocytes were cultured in ULA plates with seven-day NB conditioned medium mixed 1:1 with complete monocyte medium for 24 hours and analyzed for IL-6 production. To assess the growth advantage of NB cultured with monocytes, NB-luc cell lines and monocytes were seeded in tissue culture-treated white 96-well plates (1:1 ratio) and cultured for four days. Luminescence was measured using a TECAN Spark plate reader (TECAN). To evaluate changes in proliferation, NB was pulsed for 10 minutes in CellTrace Violet (2 μM, Invitrogen) and seeded at 100,000 cells per well in a 12-well tissue culture-treated plate. Monocytes were added directly to the NB monolayer at a density of 100,000 per well and incubated for four days. CellTrace Violet expression was analyzed by flow cytometry.
To evaluate the expression of TNFα in NB and monocytes, cells were first stimulated with LPS (50 ng/mL) in the presence of GolgiStop (BD Biosciences) and fixed using CytoFix/Cytoperm buffer (BD Biosciences). Cells were then stained with TNFα-PE (BD Biosciences). To evaluate the expression of TNFR1 and TNFR2 on NB and monocytes, cells were stained with TNFR1-BV421 and TNFR2-APC (BD Biosciences) in FACS staining buffer containing 0.05% sodium azide to prevent receptor/antibody processing. To estimate changes in NF-kB expression, treated co-cultures were first stained with ZombieViolet (1 μL/test, Biolegend) to counterstain dead cells and APC-H7 CD45 and/or FITC-CD14 to label monocytes for 20 minutes at room temperature. […] All flow samples were run using an LSRII 5-laser flow cytometer (Texas Children's Hospital Cancer Center Flow Cytometry Core, Houston, Tex.) and analyzed using FlowJo Software (Treestar).

[2] = tested on: NB tumor cell gene expression; assay: Eukaryotic mRNA-seq of xenograft tumors; assay type: in vivo; conditions: mouse transcripts, vs control tumors
From the text: (FIG. 17A) Tumors recovered from mice in FIG. 16 were snap frozen in OTC media, thin sectioned, and stained for murine CD31 expression (red) and DAPI counterstain (blue). Results shown are representative images from five fields of view (FOVs) per tumor, with five tumors per group. Scale bar 50 μm. (FIG. 17B) Total number of CD31+ regions per FOV with box and whisker plot showing quartiles±range (Ctrl n=15, Etan n=25). (FIG. 17C) Size of each CD31+ area quantified per FOV; shown is median CD31+ area per FOV with box and whisker plot showing quartiles±range (Ctrl n=15, Etan n=25) (FIG. 17D) Longest distance across each CD31+ area (Max Feret distance) per FOV; shown is median distance per FOV with box and whisker plot showing quartiles±range (Ctrl n=15, Etan n=25). […]
Total RNA from cell pellets was isolated using the RNeasy Micro Plus Kit (Qiagen). […] Relative changes in gene expression were calculated based on the ΔCt method using housekeeping gene GAPDH as control. […]
Eukaryotic mRNA sequencing with 30M depth and 150 paired end reads was performed by Novogene, Inc. Quality control checks on FASTQ sequencing files were performed by FastQC (v0.11.2, https://www.bioinformatics.babraham.ac.uk/projects/fastqc/). Reads were then aligned to human (GRCh38, Ensembl release version 84) or mouse (GRCm38, Ensembl release version 81) reference genomes separately by hisat2 v2.1.0(51). […]

For etanercept, the “reversal of IκBα degradation in monocytes” value ([1]; CHLA-255 + monocytes, 24 hours (FIG. 15C)) was “complete”, the “IκBα levels in monocytes” value ([1]; SK-N-AS + monocytes, 24 hours) was “increasing monocyte levels of IκBα” and the “infiltration of erythrocytes, platelets, and neutrophils (mouse stroma gene expression)” value [2] was “reduced infiltration of erythrocytes, platelets, and neutrophils”.
